Test system: T1, AcAAT4
T1 construct: pET32a-His fusion, expressed in E. coli BL21, Ni-NTA purified; tag cleavage not mentioned
Test: GC-MS of SPME-collected (Z)-3-hexenyl acetate, varied (Z)-3-hexenol
Assay type: biochemical, Acacia confusa
Conditions: acetyl-CoA co-substrate; 50 mM Tris-HCl pH 7.4 in methods (text: optimal conditions pH 7.5-8); 30 °C

Km: 54.6 µM
Compound: CC/C=C\CCO [(Z)-3-hexenol]

Reference: publication PMC12330005, “Mechanism mediating the biosynthesis of the anti-insect volatile (Z)-3-hexenyl acetate in Acacia confusa Merr., an intercropping plant in tea plantations” (Molecular Horticulture, 2025)
